Laboratory results reported in patent publication US10611740B2, “Aryl dihydro-2H-benzo[b][1,4]oxazine sulfonamide and related compounds for use as agonists of RORγ and the treatment of disease” (Lycera Corporation, priority 2015, dated 2020).

Assays:
[1] = target: T1, Gal4-RORγ-LBD (Homo sapiens, UniProt P51449); test: Gal4-RORγ Luciferase Reporter Assay in HEK-293T Cells; format: cell-based; conditions: HEK-293 cells, luciferase reporter, with 2 μM ursolic acid
T1 construct: expressed in transfected cells; host or cells: HEK-293 cells (pcDNA3.1neo plasmid)
T1 sequence (P51449 269-508 limits assumed): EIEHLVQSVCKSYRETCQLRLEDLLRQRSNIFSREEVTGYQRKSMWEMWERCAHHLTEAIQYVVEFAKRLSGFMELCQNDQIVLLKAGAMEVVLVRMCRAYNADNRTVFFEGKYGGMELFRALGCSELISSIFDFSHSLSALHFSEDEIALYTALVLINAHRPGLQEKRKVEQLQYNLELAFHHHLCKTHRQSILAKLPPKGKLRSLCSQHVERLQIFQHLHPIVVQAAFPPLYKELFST
Outline: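 Luminescence read-out (One-Glo, 10 min RT) after overnight compound exposure at 37 °C in HEK-293 cells carrying Gal4-RORγ-LBD plus a Gal4-luciferase reporter, in the presence of 2 μM ursolic acid. Max Response is the upper plateau from a 4-parameter logistic fit, normalized to untreated signal = 100.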

[2] = target: T2, RORγ-LBD (Homo sapiens, UniProt P51449); test: RORγ-Ligand Binding Domain (LBD) TR-FRET Assay; format: biochemical;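 for TR-FRET Assay Max Response: 665/615 nm ratio relative to signal without ursolic acid or compound set at 100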
T2 construct: made in house; host or cells: SF9 cells (baculovirus)
T2 sequence (P51449 269-508 limits assumed): T1 sequence (P51449 269-508 limits assumed)
Outline: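 TR-FRET read-out using a biotin-tagged SRC1 coactivator LXXLL peptide (200 nM final), with the antagonist ursolic acid present at 2 μM final. Receptor is His-tagged LBD expressed in SF9 cells, ~3 nM final in pH 7.0 Tris/KCl/EDTA/DTT/BSA buffer; compounds in 1% DMSO final.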

SMILES	EC50 [1] [nM]	EC50 [2] [nM]	Gal4-RORγ Assay Max Response [1]	TR-FRET Assay Max Response [2]
O=C(O)CC[C@H]1CN(S(=O)(=O)c2cccc(C(F)(F)F)c2)c2cc(-c3cccc(F)c3F)ccc2O1 [Compound 1, (S)-3-(6-(2,3-difluorophenyl)-4-((3-(trifluoromethyl)phenyl)sulfonyl)-3,4-dihydro-2H-benzo[b][1,4]oxazin-2-yl)propanoic acid]	< 500	< 500	*** (The symbol “***” indicates a value in the range of greater than 150 to 200)	*** (The symbol “***” indicates a value in the range of greater than 150 to 200)
COc1c(Cl)cccc1-c1ccc2c(c1)N(S(=O)(=O)c1cccc(C(F)(F)F)c1)C[C@H](CCC(=O)O)O2 [Compound 2AC, (S)-3-(6-(3-chloro-2-methoxy-phenyl)-4-((3-(trifluoromethyl)-phenyl)sulfonyl)-3,4-dihydro-2H-benzo[b][1,4]oxazin-2-yl)propanoic acid]	< 500	< 500	*** (The symbol “***” indicates a value in the range of greater than 150 to 200)	**** (The symbol “****” indicates a value greater than 200)
O=C(O)CC[C@H]1CN(S(=O)(=O)c2cccc(C(F)(F)F)c2)c2cc(-c3cc(F)ccc3F)ccc2O1 [Compound 2AD, (S)-3-(6-(2,5-difluorophenyl)-4-((3-(trifluoromethyl)-phenyl)sulfonyl)-3,4-dihydro-2H-benzo[b][1,4]oxazin-2-yl)propanoic acid]	< 500	< 500	*** (The symbol “***” indicates a value in the range of greater than 150 to 200)	**** (The symbol “****” indicates a value greater than 200)
O=C(O)CC[C@H]1CN(S(=O)(=O)c2cccc(C(F)(F)F)c2)c2cc(-c3ccc(F)c(C(F)(F)F)c3)ccc2O1 [Compound 2AF, (S)-3-(6-(4-fluoro-3-(trifluoromethyl)phenyl)-4-((3-(trifluoromethyl)phenyl)-sulfonyl)-3,4-dihydro-2H-benzo[b][1,4]oxazin-2-yl)propanoic acid]	> 10000	< 500	–	**** (The symbol “****” indicates a value greater than 200)
O=C(O)CC[C@H]1CN(S(=O)(=O)c2cccc(C(F)(F)F)c2)c2cc(-c3c(F)cccc3Cl)ccc2O1 [Compound 2AG, (S)-3-(6-(2-chloro-6-fluoro-phenyl)-4-((3-(trifluoromethyl)-phenyl)sulfonyl)-3,4-dihydro-2H-benzo[b][1,4]oxazin-2-yl)propanoic acid]	< 500	< 500	*** (The symbol “***” indicates a value in the range of greater than 150 to 200)	**** (The symbol “****” indicates a value greater than 200)

More lines, main results first:

EC50 [1] [nM]	EC50 [2] [nM]	SMILES	Gal4-RORγ Assay Max Response [1]	TR-FRET Assay Max Response [2]
< 500	< 500	O=C(O)CC[C@H]1CN(S(=O)(=O)c2cccc(C(F)(F)F)c2)c2cc(-c3ccccc3Cl)ccc2O1 [Compound 2A, (S)-3-(6-(2-chlorophenyl)-4-((3-(trifluoromethyl)phenyl)-sulfonyl)-3,4-dihydro-2H-benzo[b][1,4]oxazin-2-yl)propanoic acid]	** (The symbol “**” indicates a value in the range of greater than 90 to 150)	*** (The symbol “***” indicates a value in the range of greater than 150 to 200)
> 10000	< 500	O=C(O)CC[C@H]1CN(S(=O)(=O)c2cccc(C(F)(F)F)c2)c2cc(-c3ccnc(C(F)(F)F)c3)ccc2O1 [Compound 2AA, (S)-3-(4-((3-(trifluoromethyl)-phenyl)sulfonyl)-6-(2-(trifluoromethyl)pyridin-4-yl)-3,4-dihydro-2H-benzo[b][1,4]oxazin-2-yl)propanoic acid]	–	**** (The symbol “****” indicates a value greater than 200)
> 10000	< 500	O=C(O)CC[C@H]1CN(S(=O)(=O)c2cccc(C(F)(F)F)c2)c2cc(-c3ccc(Cl)cc3Cl)ccc2O1 [Compound 2AB, (S)-3-(6-(2,4-dichlorophenyl)-4-((3-(trifluoromethyl)phenyl)-sulfonyl)-3,4-dihydro-2H-benzo[b][1,4]oxazin-2-yl)propanoic acid]	** (The symbol “**” indicates a value in the range of greater than 90 to 150)	**** (The symbol “****” indicates a value greater than 200)
< 500	< 500	O=C(O)CC[C@H]1CN(S(=O)(=O)c2cccc(C(F)(F)F)c2)c2cc(-c3cc(F)cc(C(F)(F)F)c3)ccc2O1 [Compound 2AE, (S)-3-(6-(3-fluoro-5-(trifluoromethyl)phenyl)-4-((3-(trifluoromethyl)phenyl)-sulfonyl)-3,4-dihydro-2H-benzo[b][1,4]oxazin-2-yl)propanoic acid]	*** (The symbol “***” indicates a value in the range of greater than 150 to 200)	**** (The symbol “****” indicates a value greater than 200)
< 500	< 500	O=C(O)CC[C@H]1CN(S(=O)(=O)c2cccc(C(F)(F)F)c2)c2cc(-c3cccc(F)c3Cl)ccc2O1 [Compound 2AH, (S)-3-(6-(2-chloro-3-fluoro-phenyl)-4-((3-(trifluoromethyl)-phenyl)sulfonyl)-3,4-dihydro-2H-benzo[b][1,4]oxazin-2-yl)propanoic acid]	*** (The symbol “***” indicates a value in the range of greater than 150 to 200)	**** (The symbol “****” indicates a value greater than 200)
–	< 500	O=C(O)CC[C@H]1CN(S(=O)(=O)c2cccc(C(F)(F)F)c2)c2cc(-c3cc(F)ccc3Cl)ccc2O1 [Compound 2AI, (S)-3-(6-(2-chloro-5-fluoro-phenyl)-4-((3-(trifluoromethyl)-phenyl)sulfonyl)-3,4-dihydro-2H-benzo[b][1,4]oxazin-2-yl)propanoic acid]	** (The symbol “**” indicates a value in the range of greater than 90 to 150)	**** (The symbol “****” indicates a value greater than 200)
< 500	< 500	CC(C)c1ccccc1-c1ccc2c(c1)N(S(=O)(=O)c1cccc(C(F)(F)F)c1)C[C@H](CCC(=O)O)O2 [Compound 2AJ, (S)-3-(6-(2-isopropylphenyl)-4-((3-(trifluoromethyl)phenyl)-sulfonyl)-3,4-dihydro-2H-benzo[b][1,4]oxazin-2-yl)propanoic acid]	** (The symbol “**” indicates a value in the range of greater than 90 to 150)	**** (The symbol “****” indicates a value greater than 200)
< 500	< 500	O=C(O)CC[C@H]1CN(S(=O)(=O)c2cccc(C(F)(F)F)c2)c2cc(-c3cncc(C(F)(F)F)c3)ccc2O1 [Compound 2AK, (S)-3-(4-((3-(trifluoromethyl)-phenyl)sulfonyl)-6-(5-(trifluoromethyl)pyridin-3-yl)-3,4-dihydro-2H-benzo[b][1,4]oxazin-2-yl)propanoic acid]	** (The symbol “**” indicates a value in the range of greater than 90 to 150)	**** (The symbol “****” indicates a value greater than 200)
